Assay results from patent US20080261824A1, “Rationale, methods, and assays for identifying novel taste cell genes and salty taste receptor targets and assays using these identified genes or gene products” (Senomyx, Inc., priority 2006, published 2008).

Columns and labels:
sodium chloride taste = conditions: concentrations that specifically modulate ENaC function; cited from earlier work
[1] = tested on: perceived human salt intensity; assay: inventors' test of perceived human salt intensity; assay type: in vivo
Description: Unlike other mammals, amiloride has been reported to only slightly reduce the intensity of sodium chloride taste, i.e., by about 15-20% when used at concentrations that specifically modulate ENaC function (Halpern, B. P. (1998) Neuroscience and Behavioral Reviews. 23: 5-47). […] Thus, additional non-ENaC genes are likely involved in human salt taste.

What does the source list for `N=C(N)NC(=O)c1nc(Cl)c(N)nc1N` [amiloride]?
reduction of the intensity of sodium chloride taste (sodium chloride taste): 15-20%; effect on perceived human salt intensity ([1]; tested at 300-fold above IC50 for alpha beta gamma ENaC (10-fold over IC50 for delta beta gamma ENaC)): did not elicit a significant effect

With `NC(=Nc1ccccc1)NC(=O)c1nc(Cl)c(N)nc1N` [phenamil] as the molecule, how does the “effect on perceived human salt intensity” value ([1]; tested at 3000-fold above IC50 for alpha beta gamma ENaC (100-fold over IC50 for delta beta gamma ENaC), levels printed for benzamil) read?
The value was “did not elicit a significant effect”.
